Where a name gives a salt, the structure may show the parent alone.
Key:
[1] = Weight increase and appearance after exposure to relative humidity (hygroscopicity test); format: physicochemical; settings: for 24 hours; for Weight increase %: exposure to a relative humidity of 60 ±5% at 25%; for Appearance: exposure to a relative humidity of 60 ±5%
[2] = Hygroscopicity of the isolated solid as observed on preparation; format: physicochemical; settings: isolated solid after preparation
Description: The mixture was then filtered under vacuum and the solid thus obtained was dried in a thermostatic oven at 30° C. overnight.
The mixture was then filtered under vacuum and the solid thus obtained dried in a thermostatic oven at 30° C. overnight.
8 g (0.05 moles) of L-carnitine inner salt, 5.8 g (0.05 moles) of fumaric acid and 6.6 g of L-ornithine were dissolved in 7.5 mL of water at 60° C. and the resulting thick, clear mass was slowly poured into a solution of acetone (800 mL) under vigorous mechanical stirring.

| Compound | Weight increase % [1] | Appearance [1] | Hygroscopicity of the solid obtained [2] |
| --- | --- | --- | --- |
| C[N+](C)(C)C[C@H](O)CC(=O)[O-] [L-carnitine inner salt] | 19% | deliquescent |  |
| Isovaleryl L-Carnitine and Creatine Fumarate [Ex. 2 (BS/232)] | 0.19% | no variation | non-hygroscopic |
| CC(C)CC(=O)O[C@H](CC(=O)[O-])C[N+](C)(C)C [Isovaleryl L-carnitine inner salt] | 20% | deliquescent |  |
| C[N+](C)(C)C[C@H](O)CC(=O)[O-].O=C(O)/C=C/C(=O)O [L-carnitine fumarate] |  |  | highly hygroscopic |
| L-Carnitine and Creatine Fumarate [Ex. 1 (BS/231)] | 0.18% | no variation | non-hygroscopic |
| L-carnitine and lysine fumarate |  |  | non-hygroscopic |
| CN(CC(=O)O)C(=N)N [Anhydrous creatine] | 3% | flowable |  |
| isovaleryl L-carnitine and lysine fumarate |  |  | non-hygroscopic |

— patent US6730693B2, “Double salts of fumaric acid with a carnitine and an amino acid and food supplements, dietary supplements and drugs containing same” (Sigma-Tau Industrie Farmaceutiche Riunite S.p.A., priority 2000, dated 2004)
